Test system: oil field isolated anaerobic SRB consortium
Test: Biocidal efficacy (MBC for complete bacteria kill) against sulfate reducing bacteria
Assay type: cell-based, Sulfate Reducing Bacteria (SRB)
Settings: minimum tested biocide concentration for complete bacteria kill, alone or in the blend, 40° C., 24 hour, anaerobic salt solution, 10^6 to 10^7 CFU/mL
Protocol: Inside an anaerobic chamber (BACTRON III), a deaerated sterile salt solution (3.1183 g of NaCl, […] of NaHCO3, 47.70 mg of KCl, 72.00 mg of CaCl2, 54.49 mg of MgSO4, 172.28 mg of Na2SO4, 43.92 mg of Na2CO3 in 1 L water) was contaminated with an oil field isolated anaerobic SRB consortium at final bacterial concentrations of 10^6 to 10^7 CFU/mL. The aliquots of this contaminated water were then treated with glutaraldehyde and DXN, or the glutaraldehyde/DXN combination at different active concentration levels. After the mixtures were incubated at 40° C. for 24 hour, the biocidal efficacy was determined by minimum tested biocide concentration for complete bacteria kill in the aliquots (MBC). Table 1 summarizes the efficacy of each biocide and their blends, and the Synergy Index* of each combination.

SMILES | MBC (active ppm) DXN (DXN concentration) | MBC (active ppm) glut (glutaraldehyde concentration)
CC(=O)OC1CC(C)OC(C)O1 (centres unmarked) [0:1, 2,6-dimethyl-1,3-dioxan-4-yl acetate] | 333.33 active ppm | –
O=CCCCC=O [1:0, glutaraldehyde] | – | 2.63 active ppm

Reference: patent publication US8557862B2, “Synergistic antimicrobial composition” (Dow Global Technologies LLC, priority 2009, dated 2013)
